US7217735B1, “Methods and compositions for enhancing delivery of therapeutic agents to tissues” (priority 1999, dated 2007)
Read-outs that look alike come from different tables or passages of the source. Marks after values point to notes of the source that are not given here.

Assays:
[1] = test system: Pgp-positive patient tumors; assay: Paclitaxel accumulation by Pgp status; assay type: in vitro ADME, human; conditions: 12,000 nM
Procedure: The expression of Pgp was measured by immunohistochemical methods, using procedures described previously (Toth K et al. (1994) Am J Pathol 144:227–236). Briefly, tissue sections were de-waxed and rehydrated sequentially in xylene, ethanol and water. Tissue sections were boiled in a 0.1 M citrate buffer, pH 6.0, in a microwave oven, then cooled and washed in phosphate-buffered saline (PBS). The tissue sections were incubated with Dako blocking solution for 10 min and subsequently with the following antibody solutions for 2 hr: a mouse anti-human Pgp antibody (JSB-1, 1:200 dilution) and a rabbit antihuman Pgp polyclonal antibody (ab-1, 1:100 dilution). […] The incubation was carried out in a humidified chamber at room temperature. The antibodies were diluted in PBS containing 5 mg/ml bovine serum albumin. For negative controls, we used mouse IgG as the primary antibody. […] After washing with PBS, the tissue sections were covered with the linker solution, and then with peroxidase-conjugated streptavidin solution. After washing twice with PBS, tissue sections were incubated for 5 to 7 minutes with diaminobenzidine and counterstained with hematoxylin.
The statistical significance of the differences between groups was analyzed by the two-tailed unpaired Student's t-test.

[2] = Effect of pretreatment on paclitaxel accumulation in tumors, in vivo infusion; parameters: species or system Copenhagen rat; conditions: male, Copenhagen, rat; for Kp: tumor and plasma, intravenous, read-out: Tumor-to-plasma conc. ratio at end of Tx
Text: (§1) Experiments were initiated when the tumor was between 0.3 to 0.5 g in size.
(§2) The jugular vein and carotid artery of tumor-bearing rats were catheterized, under light ether anesthesia, with polyethylene tubing (PE-50, Becton Dickinson Co., Sparks, Md.) for drug administration and for blood sampling, respectively. Each catheter was exteriorized to the dorsal side of the neck and attached to a second polyethylene tubing (PE-50), respectively. The catheters and tubings were covered with a metal coil tubing. […] Blood samples (0.12 or 0.22 ml) were obtained at predetermined times. Plasma fraction was obtained by centrifugation at 2,000 g for 3 min, and stored at −70° C. for HPLC analysis. At the end of the experiment, tumors were harvested. One quarter of a tumor was fixed in 10% neutralized formalin solution and processed for tissue morphology evaluation. Tumor cell density and the fraction of apoptotic cells were determined by counting the number of tumor cells and apoptotic cells in nonnecrotic regions at 400× magnification (5 microscopic fields/tumor). The remainder of the tumor was stored at […] until HPLC analysis for drug concentration.
(§3) Preweighed tumors were homogenized, mixed with the internal standard, 100:1 cephalomanine (10:g/ml in methanol). The HPLC stationary phase consisted of a cleaning column (NovaPak C8, 75×3.9 mm ID, 4:m particle size, Waters Associates, Milford, Mass.) and an analytical column (Bakerbond Octadecyl, 250×4.6 mm ID, 5:m particle size, J. T. Baker, Phillipsburg, N.J.). Samples were injected onto the clean-up column and eluted with the clean-up mobile phase (37.5% acetonitrile in Water) at 1 ml/min.

MAT-LyLu prostate tumor = assay: as above; parameters: species or system Copenhagen rat
Text: as §1, §2, §3

FaDu tumor histocultures = conditions: for time at which even distribution in tumor was attained: with pretreatment
Text: The histocultures were transferred to a collagen gel presoaked with drug-containing medium for at least 8 hr. The latter was to ascertain that the drug concentration in the medium inside the collagen gel was at equilibrium with the surrounding medium, in order to eliminate the delay in drug transport from medium through the collage gel. Drug treatment was terminated by transferring histocultures to a collagen gel presoaked with drug-free medium. Histocultures were transferred using a pair of hooked forceps and care was exercised to avoid squeezing or pinching.
The total drug concentration in tumor histocultures was measured as described in Example 1. […] Thirty to 35 tumor histocultures were used for each time point.
Two studies were performed.
One schedule used 50% of the total C×T to induce apoptosis, whereas the other schedule used continuous treatment. […] The fraction of apoptotic cells and cell density were determined by counting the number of total and apoptotic tumor cells in 400× microscopic fields (3 fields per tumor).

[3] = test system: patient head and neck tumors; assay: Paclitaxel efflux from tumor histocultures
Procedure: (§4) The specimens were washed with culture medium for three times and dissected into about 1 mm^3 fragments under sterile conditions. The culture medium consisted of a 1:1 mixture of MEM/DMEM for patient tumors, MEM for FaDu xenografts, and RPMI1640 for PC3 xenografts, supplemented with 9% heat-inactivated FBS, 2 mM glutamine, 0.1 mM non-essential amino acids (only for MEM/DMEM), 90:g/ml gentamicin and 90:g/ml cefotaxime sodium. Five histoculture fragments were placed on a 1 cm^2 piece of presoaked collagen gel and incubated with 4 ml culture medium in 6-well plates. After 2 to 4 days, tumor histocultures were used to study the kinetics of drug penetration.
(§5) At predetermined times, 100 μl of medium was taken from each well and the histocultures were removed from the plates. The histocultures were blot-dried on a filter paper and their weights were measured. One hundred 1 of medium or tumor samples were mixed with 0.5 ml of Solvable tissue/gel solubilizer, incubated at 50° C. in an oven overnight, and analyzed for total radioactivity using liquid scintillation counting. […] Drug concentration in tissue was calculated as (drug amount) divided by (tissue weight) and was expressed in molar terms.
The study design of experiments using patient tumors was dictated by the size of the specimens. On some occasions, specimens from an individual patient were only sufficient to study drug uptake and efflux at one or more but not all drug concentrations. A total of 7 head and neck tumors and 3 ovarian tumors were used. For the FaDu xenograft tumor, specimens from individual animals were sufficiently large that each tumor was used for studying uptake and efflux at all four drug concentrations.
After replacing the drug-containing medium with drug-free medium, the drug concentration remaining in histocultures at 24 and 72 hours post-treatment were analyzed to determine the time to reach 50% of the pseudo steady state level (T1/2,efflux). The statistical significance of the differences among patient (head and neck and ovarian, n=6) and FaDu (n=3) tumors, at equal initial medium concentrations, were analyzed using a unpaired t-test.

[4] = test system: patient and xenograft tumors; assay: Paclitaxel efflux from tumor histocultures, all three tumor types
Procedure: as §4, §5
The study design of experiments using patient tumors was dictated by the size of the specimens. […]

[5] = Group 1: 5 mg/kg/hr x 1 hr, then 0.83 x 6 hr at 24 hr, total 10 mg/kg
[6] = Group 2A: 5 mg/kg/hr x 1 hr at 0 hr, total 5 mg/kg, at 1 hr
[7] = Group 2B: 5 mg/kg/hr x 1 hr at 0 hr, total 5 mg/kg, at 24 hr
[8] = Group 3: 0.83 mg/kg/hr x 6 hr at 0 hr, total 5 mg/kg
[9] = Group 4: 5 mg/kg/hr x 1 hr at 0 hr + 0.83 x 6 hr at 1.2 hr, total 10 mg/kg
[10] = Group 5: 0.83 mg/kg/hr x 12 hr, total 10 mg/kg
[11] = initial Cmedium 120 nM for 24 hr, at 24 hr post-treatment
[12] = initial Cmedium 120 nM for 24 hr, at 72 hr post-treatment
[13] = initial Cmedium 1,200 nM for 24 hr, at 24 hr post-treatment
[14] = initial Cmedium 1,200 nM for 24 hr, at 72 hr post-treatment

CC(=O)O[C@H]1C(=O)[C@@]2(C)[C@H]([C@H](OC(=O)c3ccccc3)[C@]3(O)C[C@H](OC(=O)[C@H](O)[C@@H](NC(=O)c4ccccc4)c4ccccc4)C(C)=C1C3(C)C)[C@]1(OC(C)=O)CO[C@@H]1C[C@@H]2O [paclitaxel]
lower accumulation in Pgp-positive vs Pgp-negative patient tumors (average difference) [1]: < 25%
half-life ([2]; plasma, rats, intravenous infusion, read-out: major half-life (converted)): 1.1 h
Kp ([2]; 5 mg/kg, Group 2A: 5 mg/kg/hr x 1 hr at 0 hr, total 5 mg/kg): 0.46 ± 0.09
Kp ([2]; 5 mg/kg, Group 3: 0.83 mg/kg/hr x 6 hr at 0 hr, total 5 mg/kg): 1.73 ± 0.18
Kp ([2]; 10 mg/kg, Group 1: 5 mg/kg/hr x 1 hr, then 0.83 x 6 hr at 24 hr, total 10 mg/kg): 2.8 ± 0.28
Kp ([2]; 10 mg/kg, Group 4: 5 mg/kg/hr x 1 hr at 0 hr + 0.83 x 6 hr at 1.2 hr, total 10 mg/kg): 1.2 ± 0.3
Kp ([2]; 10 mg/kg, Group 5: 0.83 mg/kg/hr x 12 hr, total 10 mg/kg): 1.98 ± 0.23
Apoptotic fraction (MAT-LyLu prostate tumor; [5]): 14.5 ± 2.5^b %
Cell density (MAT-LyLu prostate tumor; [5]): 83 ± 4.69^b
Plasma conc. at end of Tx (MAT-LyLu prostate tumor; [5]): 1.42 ± 0.11 :g/ml
Tumor conc. at specified time (MAT-LyLu prostate tumor; Group 1: 5 mg/kg/hr x 1 hr, then 0.83 x 6 hr at 24 hr, total 10 mg/kg, at 30 hr): 3.94 ± 0.35 :g/g
higher tumor concentration in Group 1 than sum of Group 2 at 24 hr and Group 3 at 6 hr (MAT-LyLu prostate tumor; Group 1 at 30 hr): 50%
Plasma conc. at end of Tx (MAT-LyLu prostate tumor; Group 2A: 5 mg/kg/hr x 1 hr at 0 hr, total 5 mg/kg): 6.01 ± 0.64 :g/ml
Apoptotic fraction (MAT-LyLu prostate tumor; [6]): 1.5 ± 0.9%
Cell density (MAT-LyLu prostate tumor; [6]): 120 ± 4.35
Tumor conc. at specified time (MAT-LyLu prostate tumor; [6]): 2.76 ± 0.57 :g/g
Apoptotic fraction (MAT-LyLu prostate tumor; [7]): 11.2 ± 2.3^c %
Cell density (MAT-LyLu prostate tumor; [7]): 85 ± 4.52
Tumor conc. at specified time (MAT-LyLu prostate tumor; [7]): <0.35 at :g/g
Apoptotic fraction (MAT-LyLu prostate tumor; [8]): 3.5 ± 1.5%
Cell density (MAT-LyLu prostate tumor; [8]): 112 ± 6.08
Plasma conc. at end of Tx (MAT-LyLu prostate tumor; [8]): 1.31 ± 0.12 :g/ml
Tumor conc. at specified time (MAT-LyLu prostate tumor; Group 3: 0.83 mg/kg/hr x 6 hr at 0 hr, total 5 mg/kg, at 6 hr): 2.26 ± 0.13 :g/g
Apoptotic fraction (MAT-LyLu prostate tumor; [9]): 5.8 ± 2.2%
Cell density (MAT-LyLu prostate tumor; [9]): 108 ± 5.78
Plasma conc. at end of Tx (MAT-LyLu prostate tumor; [9]): 2.98 ± 0.60 :g/ml
Tumor conc. at specified time (MAT-LyLu prostate tumor; Group 4: 5 mg/kg/hr x 1 hr at 0 hr + 0.83 x 6 hr at 1.2 hr, total 10 mg/kg, at 7.2 hr): 3.24 ± 0.31 :g/g
Apoptotic fraction (MAT-LyLu prostate tumor; [10]): 6.5 ± 1.6%
Cell density (MAT-LyLu prostate tumor; [10]): 115 ± 5.18
Plasma conc. at end of Tx (MAT-LyLu prostate tumor; [10]): 1.50 ± 0.06 :g/ml
Tumor conc. at specified time (MAT-LyLu prostate tumor; Group 5: 0.83 mg/kg/hr x 12 hr, total 10 mg/kg, at 12 hr): 2.95 ± 0.34 :g/g
higher cell (density) in Group 5 compared to Group 1 (MAT-LyLu prostate tumor; end of treatment): 25%
higher cell density in Group 4 compared to Group 1 (MAT-LyLu prostate tumor; end of treatment): 30%
lower apoptosis in Group 4 compared to Group 1 (MAT-LyLu prostate tumor; end of treatment): 60%
lower apoptosis in Group 5 compared to Group 1 (MAT-LyLu prostate tumor; end of treatment): 35%
lower drug concentration in Group 4 compared to Group 1 (MAT-LyLu prostate tumor; end of treatment): 18%
lower drug concentration in Group 5 at 12 hr than Group 1 at 30 hr (MAT-LyLu prostate tumor; rat, in vivo): 25%
difference between plasma concentrations at end of 6 and 12 hr infusions (MAT-LyLu prostate tumor; rats): 13%
time at which even distribution in tumor was attained (FaDu tumor histocultures; 10 nM): 72 h
Paclitaxel in tumor (FaDu tumor histocultures; 50 nM x 24 hr, 24 hr after initiation of treatment): 3.11 ± 0.31 :M
Paclitaxel in tumor (FaDu tumor histocultures; 50 nM x 24 hr, 36 hr after initiation of treatment): 2.01 ± 0.32 :M
time at which even distribution in tumor was attained (FaDu tumor histocultures; 50 nM): 24 h
time of even distribution throughout the tumor (FaDu tumor histocultures; 50 nM, without pretreatment): ≤ 72 h
Paclitaxel in tumor (FaDu tumor histocultures; 600 nM x 1 hr, 23 hr later 50 nM x 12 hr, 24 hr after initiation of treatment): 2.68 ± 0.31 :M
Paclitaxel in tumor (FaDu tumor histocultures; 600 nM x 1 hr, 23 hr later 50 nM x 12 hr, 36 hr after initiation of treatment): 4.33 ± 0.29 :M
paclitaxel penetration (FaDu tumor histocultures; control group, 50 nM continuously for 24 hr, during the next 12 hr): less than 20 cell layers
higher drug accumulation in pretreatment group vs control group (FaDu tumor histocultures; end of drug treatment (36 hr vs 24 hr), equal CxT 1,200 nM·hr): 40%
time of even drug distribution throughout histocultures (FaDu tumor histocultures; pretreatment group, 600 nM 1 hr, 23 hr drug-free, 50 nM 12 hr): 36 h
T1/2,efflux ([3]; initial Cmedium 120 nM for 24 hr): 7.45 ± 3.02 h
% remaining in tumor [3, 11]: 54.8 ± 3.1%
Cmedium [3, 11]: 1.13 ± 0.17 nM
Ctumor [3, 11]: 1.70 ± :M
% remaining in tumor [3, 12]: 43.3 ± 16.3%
Cmedium [3, 12]: 1.32 ± 0.14 nM
Ctumor [3, 12]: 1.19 ± 0.50 :M
T1/2,efflux ([3]; initial Cmedium 1,200 nM for 24 hr): 3.33 ± 2.62 h
% remaining in tumor [3, 13]: 18.7 ± 6.2%
Cmedium [3, 13]: 7.69 ± 2.55 nM
Ctumor [3, 13]: 4.38 ± :M
% remaining in tumor [3, 14]: 16.0 ± 5.3%
Cmedium [3, 14]: 10.9 ± 1.1 nM
Ctumor [3, 14]: 4.17 ± 2.77 :M
time at which drug concentration declined to pseudo steady state level [4]: 48 h
